# Measurements from patent US12497597B2, “Methods of generating and expanding hematopoietic stem cells” (CHILDREN'S HOSPITAL MEDICAL CENTER, priority 2019, dated 2025).
# Tests used:
# Notch activity = experiment: Notch inhibition in organoid cultures with the γ-secretase inhibitor DAPT; format: cell-based, human
# liver organoid cultures = experiment: Notch dependency test: DLL4 added to Matrigel drops of liver organoid culture with hematopoietic cytokines; format: cell-based, human
# Protocol: Day 7 spheroids were collected by manual pipetting and pelleted by centrifugation. Media was aspirated and cells were embedded in 100% Matrigel by gentle pipetting to homogenize the cell pellet. Optionally, a Notch activator or ligand is added to the Matrigel (e.g. 10 μg/mL, of […]). Alternatively, optionally, UCB cells are added to the Matrigel for co-culture with organoids (e.g. 1,000 UCB cells per 75 μL of Matrigel). 250 μL Matrigel (Corning) was used per well of a 24-well plate of definitive endoderm culture. 75 μL Matrigel drops were made, 1 drop per each well of a fresh 24-well plate (VWR). The plates were placed at 37° C. in an atmosphere of 5% CO2/95% air for 5-15 minutes. After the Matrigel was solidified, Advanced DMEM/F12 with 1×B27, 1×N2, 2 mM L-glutamine, 15 mM HEPES, and 1× penicillin/streptomycin was added to the wells. This media was supplemented with 20 ng/mL BMP4 and 10 ng/mL, FGF2 for 4 days, and then the BMP4 and FGF2 were removed.
# Organoids were isolated from Matrigel drops and washed with 1×PBS. HLOs were dissociated to single cells by treatment with Trypsin-EDTA (0.05%, with phenol red, Gibco) for 10 minutes. Cells were washed in DMEM/F12 with 10% FBS and suspended in PBS with 2% FBS. After filtration (e.g. through a 40-50 μm nylon filter), the single cells were subjected to flow cytometry with the following antibodies: anti-CD45-APC (Miltenyl, 130-098-143), anti-CD34-APC/Cy7 (BioLegend, 343513), anti-CD11b-PE/Cy7 (BioLegend, 301322), anti-CD19-BV421 (BioLegend, 302233), anti-CD27-AF700 (BioLegend, 356415), anti-CD43-FITC (BioLegend, 315204). For mouse engraftment experiments, anti-mouse CD45-BV421 (BioLegend, 103133) was used.
# RNA was isolated using the RNeasy mini kit (Qiagen). Reverse transcription was carried out using the High-Capacity cDNA. Reverse Transcription Kit (Thermo Fisher) according to manufacturer's protocol. qPCR was carried out in duplicate using TagMan Gene Expression Master Mix (Applied Biosystems) and probes from the Universal Probe Library (Roche) on a QuantStudio 3 Real-Time PCR System (Thermo Fisher). […]
"HES1 expression (Notch activity; different concentrations of DAPT, 4 days of treatment from day 6, FIG. 10C)","albumin expression (Notch activity; different concentrations of DAPT, 4 days of treatment from day 6, FIG. 10D)","visible erythrocytes (Notch activity; light microscopy, 100 μM DAPT vs DMSO control, 12 days of treatment, FIG. 10A)",Compound,"production of CD45+ hematopoietic cells (liver organoid cultures; DLL4 1-10 μg/mL in Matrigel drops at organoid seeding, medium with IL-3, IL-34, GM-CSF 100 ng/mL each, FIG. 8)","IL-6 expression (liver organoid cultures; qPCR, organoids at day 18, DLL4 plus cytokines IL-3, IL-34, GM-CSF, FIG. 9A)","albumin expression (liver organoid cultures; qPCR, organoids at day 18, DLL4 plus cytokines IL-3, IL-34, GM-CSF, FIG. 9B)"
decrease,maintaining albumin expression,decrease in visible erythrocytes,C[C@H](NC(=O)Cc1cc(F)cc(F)c1)C(=O)N[C@H](C(=O)OC(C)(C)C)c1ccccc1 [DAPT],,,
,,,DLL4: Notch ligand added to the Matrigel drops during organoid seeding,increased the efficiency of cytokines in producing CD45^+ hematopoietic cells,significant increase,modest decrease
